Converted amounts (≈) assume the structure as drawn.
Tests used:
Lymphocyte [1] = assay: Ratio of immunomodulatory activity against lymphocytes by lymphocyte viability assay to immunomodulatory activity against lymphocytes by mixed lymphocyte reaction method; format: functional
Lymphocyte [2] = assay: Immunomodulatory activity against lymphocytes by lymphocyte viability assay; format: functional
Lymphocyte [3] = assay: Immunomodulatory activity against lymphocytes by mixed lymphocyte reaction method; format: functional
SK-MEL-28 = assay: Cytotoxicity against human SK-MEL-28 cells; format: functional, cell-based
A549 = assay: Cytotoxicity against human A549 cells; format: functional, cell-based
HT-29 = assay: Cytotoxicity against human HT-29 cells; format: functional, cell-based
Candida albicans = assay: Antimicrobial activity against Candida albicans at 50 ug/disk; format: functional; settings: read-out: IZ
Bacillus subtilis = assay: Antimicrobial activity against Bacillus subtilis at 50 ug/disk; format: functional; settings: read-out: IZ
P388 = assay: Cytotoxicity against mouse P388 cells; format: functional, cell-based

CC(C)=C1CCN=C1C[C@@H](C)[C@H]1CC[C@H]2C3=CC[C@H]4[C@@H](O)[C@@H](N(C)C)CC[C@]4(C)[C@H]3CC[C@]12C [LOKYSTEROLAMINE A]
Ratio IC50 (Lymphocyte [1]): >187
Activity (Lymphocyte [2]): >25
Activity (Lymphocyte [3]): 0.13
IC50 (SK-MEL-28): 5 µg/mL (≈ 10.7 µM)
IC50 (A549): 0.5 µg/mL (≈ 1.07 µM)
IC50 (HT-29): 1 µg/mL (≈ 2.14 µM)
zone of inhibition at 50 µg/disc (Candida albicans): 11 mm
zone of inhibition at 50 µg/disc (Bacillus subtilis): 19 mm
IC50 (P388): 0.5 µg/mL (≈ 1.07 µM)

CC(=O)N[C@H]1CC[C@]2(C)[C@H]3CC[C@]4(C)[C@@H]([C@H](C)CC5=NCCC5=C(C)C)CC[C@H]4C3=CC[C@H]2[C@H]1O [LOKYSTEROLAMINE B]
Activity (Lymphocyte [2]): >12.5
Activity (Lymphocyte [3]): 0.48
IC50 (SK-MEL-28): > 2 µg/mL
IC50 (A549): 0.5 µg/mL (≈ 1.04 µM)
IC50 (HT-29): 1 µg/mL (≈ 2.08 µM)
zone of inhibition at 50 µg/disc (Candida albicans): 0 mm
zone of inhibition at 50 µg/disc (Bacillus subtilis): 8 mm
IC50 (P388): 1 µg/mL (≈ 2.08 µM)

Reference: ChEMBL document CHEMBL1148047, “Two steroidal alkaloids from a sponge, Corticium sp” (J Nat Prod, 1994)
